Laboratory results from US20140309293A1, “CRYSTALLINE FORM” (L[…] INTE[…].P. A., priority 2011, published 2014).

Experiment: accelerated stability test
Type: physicochemical
Conditions: compared with the known crystalline forms of R-(+)-α-lipoic acid
Excerpt: Since it is a pharmaceutically active molecule which is notoriously very reactive and tends to polymerise, improved stability obviously represents a very important quality.

**Q.** For `O=C(O)CCCCC1CCSS1` (stereo not drawn) [new crystalline form, R-(+)-α-lipoic acid], which “stability of the crystalline form” value is on record?
**A.** more stable than the known crystalline forms
